According to article PMC12171682, “Saarvienin A—A Novel Glycopeptide with Potent Activity against Drug‐Resistant Bacteria” (Angewandte Chemie (International Ed. in English), 2025):
Where two headings read alike, the source gives them in different places.

What was measured:
[1] = tested on: vancomycin‐resistant E. faecium clinical isolates with reduced susceptibility to daptomycin (n = 26); test: microbe, parasite or virus in culture; conditions: Enterococcus faecium; for MIC: 24 h; for MIC50 / MIC90: VRE
[2] = tested on: E. faecalis ATCC 29212; test: microbe, parasite or virus in culture; conditions: Enterococcus faecalis, ATCC29212, 24 h, read-out: MIC, E. faecalis ATCC29212
[3] = tested on: vancomycin‐resistant E. faecium clinical isolates with reduced susceptibility to daptomycin (n = 26)
[4] = tested on: E. faecalis ATCC 29212; conditions: reference strain in Table S5; broth microdilution, MHB II, 37 °C, 24 h; daptomycin with 50 µg/mL Ca2+; mean of two independent experiments
[5] = read-out: MIC, Enterococcus faecium isolate 1
[6] = read-out: MIC, Enterococcus faecium isolate 2
[7] = read-out: MIC, Enterococcus faecium isolate 3
[8] = read-out: MIC, Enterococcus faecium isolate 4
[9] = read-out: MIC, Enterococcus faecium isolate 5
[10] = read-out: MIC, Enterococcus faecium isolate 6
[11] = read-out: MIC, Enterococcus faecium isolate 7
[12] = read-out: MIC, Enterococcus faecium isolate 8
[13] = read-out: MIC, Enterococcus faecium isolate 9
[14] = read-out: MIC, Enterococcus faecium isolate 10
[15] = read-out: MIC, Enterococcus faecium isolate 11
[16] = read-out: MIC, Enterococcus faecium isolate 12
[17] = read-out: MIC, Enterococcus faecium isolate 13
[18] = read-out: MIC, Enterococcus faecium isolate 14
[19] = read-out: MIC, Enterococcus faecium isolate 15
[20] = read-out: MIC, Enterococcus faecium isolate 16
[21] = read-out: MIC, Enterococcus faecium isolate 17
[22] = read-out: MIC, Enterococcus faecium isolate 18
[23] = read-out: MIC, Enterococcus faecium isolate 19
[24] = read-out: MIC, Enterococcus faecium isolate 20
[25] = read-out: MIC, Enterococcus faecium isolate 21
[26] = read-out: MIC, Enterococcus faecium isolate 22
[27] = read-out: MIC, Enterococcus faecium isolate 23
[28] = read-out: MIC, Enterococcus faecium isolate 24
[29] = read-out: MIC, Enterococcus faecium isolate 25
[30] = read-out: MIC, Enterococcus faecium isolate 26
[31] = 26 VRE E. faecium clinical isolates, broth microdilution, MHB II, daptomycin with 50 µg/mL Ca2+, mean of two independent experiments

CC1(C)S[C@@H]2[C@H](NC(=O)[C@H](N)c3ccccc3)C(=O)N2[C@H]1C(=O)O [Ampicillin]
64 µg/mL: MIC [1, 7]
2 µg/mL: MIC [2]
> 64 µg/mL: MIC [1, 5] | MIC [1, 6] | MIC [1, 8] | MIC [1, 9] | MIC [1, 10] | MIC [1, 11] | MIC [1, 12] | MIC [1, 13] | MIC [1, 14] | MIC [1, 15] | MIC [1, 16] | MIC [1, 17] | MIC [1, 18] | MIC [1, 19] | MIC [1, 20] | MIC [1, 21] | MIC [1, 22] | MIC [1, 23] | MIC [1, 24] | MIC [1, 25] | MIC [1, 26] | MIC [1, 27] | MIC [1, 28] | MIC [1, 29] | MIC [1, 30] | MIC50 [1] | MIC90 [1]

O=C(O)c1cn(C2CC2)c2cc(N3CCNCC3)c(F)cc2c1=O [Ciprofloxacin]
2 µg/mL: MIC [2]

CCCCCCCCCC(=O)N[C@@H](Cc1c[nH]c2ccccc12)C(=O)N[C@H](CC(N)=O)C(=O)N[C@@H](CC(=O)O)C(=O)N[C@@H]1C(=O)NCC(=O)N[C@@H](CCCN)C(=O)N[C@@H](CC(=O)O)C(=O)N[C@H](C)C(=O)N[C@@H](CC(=O)O)C(=O)NCC(=O)N[C@H](CO)C(=O)N[C@@H]([C@H](C)CC(=O)O)C(=O)N[C@@H](CC(=O)c2ccccc2N)C(=O)O[C@@H]1C [Daptomycin, daptomycin]
8 µg/mL: MIC50 ([3]; 24 h) | MIC90 ([3]; 24 h) | MIC, Enterococcus faecium isolate 1 ([3]; 24 h) | MIC, Enterococcus faecium isolate 2 ([3]; 24 h) | MIC, Enterococcus faecium isolate 3 ([3]; 24 h) | MIC, Enterococcus faecium isolate 4 ([3]; 24 h) | MIC, Enterococcus faecium isolate 5 ([3]; 24 h) | MIC, Enterococcus faecium isolate 6 ([3]; 24 h) | MIC, Enterococcus faecium isolate 7 ([3]; 24 h) | MIC, Enterococcus faecium isolate 8 ([3]; 24 h) | MIC, Enterococcus faecium isolate 9 ([3]; 24 h) | MIC, Enterococcus faecium isolate 10 ([3]; 24 h) | MIC, Enterococcus faecium isolate 11 ([3]; 24 h) | MIC, Enterococcus faecium isolate 12 ([3]; 24 h) | MIC, Enterococcus faecium isolate 13 ([3]; 24 h) | MIC, Enterococcus faecium isolate 14 ([3]; 24 h) | MIC, Enterococcus faecium isolate 15 ([3]; 24 h) | MIC, Enterococcus faecium isolate 16 ([3]; 24 h) | MIC, Enterococcus faecium isolate 17 ([3]; 24 h) | MIC, Enterococcus faecium isolate 18 ([3]; 24 h) | MIC, Enterococcus faecium isolate 19 ([3]; 24 h) | MIC, Enterococcus faecium isolate 20 ([3]; 24 h) | MIC, Enterococcus faecium isolate 21 ([3]; 24 h) | MIC, Enterococcus faecium isolate 22 ([3]; 24 h) | MIC, Enterococcus faecium isolate 23 ([3]; 24 h) | MIC, Enterococcus faecium isolate 26 ([3]; 24 h)
4 µg/mL: MIC, E. faecalis ATCC29212 [4]
8 to 16 µg/mL: MIC Range ([3]; 24 h)
16 µg/mL: MIC, Enterococcus faecium isolate 24 ([3]; 24 h) | MIC, Enterococcus faecium isolate 25 ([3]; 24 h)

CNC(C)C1CCC(N)C(OC2C(N)CC(N)C(OC3OCC(C)(O)C(NC)C3O)C2O)O1 (stereo not drawn) [Gentamicin]
> 64 µg/mL: MIC [1, 5] | MIC [1, 6] | MIC [1, 8] | MIC [1, 9] | MIC [1, 10] | MIC [1, 11] | MIC [1, 12] | MIC [1, 13] | MIC [1, 14] | MIC [1, 15] | MIC [1, 16] | MIC [1, 17] | MIC [1, 18] | MIC [1, 19] | MIC [1, 20] | MIC [1, 21] | MIC [1, 22] | MIC [1, 23] | MIC [1, 24] | MIC [1, 25] | MIC [1, 26] | MIC [1, 27] | MIC [1, 28] | MIC [1, 29] | MIC [1, 30] | MIC50 [1] | MIC90 [1]
8 µg/mL: MIC [2]
64 µg/mL: MIC [1, 7]

CC(=O)NC[C@H]1CN(c2ccc(N3CCOCC3)c(F)c2)C(=O)O1 [Linezolid]
2 to 4 µg/mL: MIC Range [3, 31]
4 µg/mL: MIC [1, 7] | MIC [1, 9] | MIC [1, 10] | MIC [1, 16] | MIC [1, 17] | MIC [1, 18] | MIC [1, 19] | MIC [1, 20] | MIC [1, 22] | MIC [1, 23] | MIC [1, 26] | MIC [1, 27] | MIC [1, 28] | MIC [1, 29] | MIC50 [1] | MIC90 [1]
2 µg/mL: MIC [1, 5] | MIC [1, 6] | MIC [1, 8] | MIC [1, 11] | MIC [1, 12] | MIC [1, 13] | MIC [1, 14] | MIC [1, 15] | MIC [1, 21] | MIC [1, 24] | MIC [1, 25] | MIC [1, 30] | MIC [2]

teicoplanin
> 64 µg/mL: MIC, Enterococcus faecium isolate 5 ([3]; clinical isolate 5, broth microdilution, MHB II, 37 °C, 24 h, daptomycin with 50 µg/mL Ca2+, mean of two independent experiments) | MIC, Enterococcus faecium isolate 9 ([3]; clinical isolate 9, broth microdilution, MHB II, 37 °C, 24 h, daptomycin with 50 µg/mL Ca2+, mean of two independent experiments) | MIC, Enterococcus faecium isolate 10 ([3]; clinical isolate 10, broth microdilution, MHB II, 37 °C, 24 h, daptomycin with 50 µg/mL Ca2+, mean of two independent experiments) | MIC, Enterococcus faecium isolate 21 ([3]; clinical isolate 21, broth microdilution, MHB II, 37 °C, 24 h, daptomycin with 50 µg/mL Ca2+, mean of two independent experiments) | MIC, Enterococcus faecium isolate 23 ([3]; clinical isolate 23, broth microdilution, MHB II, 37 °C, 24 h, daptomycin with 50 µg/mL Ca2+, mean of two independent experiments) | MIC, Enterococcus faecium isolate 24 ([3]; clinical isolate 24, broth microdilution, MHB II, 37 °C, 24 h, daptomycin with 50 µg/mL Ca2+, mean of two independent experiments) | MIC, Enterococcus faecium isolate 25 ([3]; clinical isolate 25, broth microdilution, MHB II, 37 °C, 24 h, daptomycin with 50 µg/mL Ca2+, mean of two independent experiments) | MIC, Enterococcus faecium isolate 26 ([3]; clinical isolate 26, broth microdilution, MHB II, 37 °C, 24 h, daptomycin with 50 µg/mL Ca2+, mean of two independent experiments)
0.5 µg/mL: MIC, E. faecalis ATCC29212 [4]
64 µg/mL: MIC50 [3, 31] | MIC, Enterococcus faecium isolate 1 ([3]; clinical isolate 1, broth microdilution, MHB II, 37 °C, 24 h, daptomycin with 50 µg/mL Ca2+, mean of two independent experiments) | MIC, Enterococcus faecium isolate 6 ([3]; clinical isolate 6, broth microdilution, MHB II, 37 °C, 24 h, daptomycin with 50 µg/mL Ca2+, mean of two independent experiments) | MIC, Enterococcus faecium isolate 8 ([3]; clinical isolate 8, broth microdilution, MHB II, 37 °C, 24 h, daptomycin with 50 µg/mL Ca2+, mean of two independent experiments) | MIC, Enterococcus faecium isolate 12 ([3]; clinical isolate 12, broth microdilution, MHB II, 37 °C, 24 h, daptomycin with 50 µg/mL Ca2+, mean of two independent experiments) | MIC, Enterococcus faecium isolate 15 ([3]; clinical isolate 15, broth microdilution, MHB II, 37 °C, 24 h, daptomycin with 50 µg/mL Ca2+, mean of two independent experiments) | MIC, Enterococcus faecium isolate 17 ([3]; clinical isolate 17, broth microdilution, MHB II, 37 °C, 24 h, daptomycin with 50 µg/mL Ca2+, mean of two independent experiments) | MIC, Enterococcus faecium isolate 19 ([3]; clinical isolate 19, broth microdilution, MHB II, 37 °C, 24 h, daptomycin with 50 µg/mL Ca2+, mean of two independent experiments) | MIC, Enterococcus faecium isolate 20 ([3]; clinical isolate 20, broth microdilution, MHB II, 37 °C, 24 h, daptomycin with 50 µg/mL Ca2+, mean of two independent experiments) | MIC, Enterococcus faecium isolate 22 ([3]; clinical isolate 22, broth microdilution, MHB II, 37 °C, 24 h, daptomycin with 50 µg/mL Ca2+, mean of two independent experiments)
32 µg/mL: MIC, Enterococcus faecium isolate 2 ([3]; clinical isolate 2, broth microdilution, MHB II, 37 °C, 24 h, daptomycin with 50 µg/mL Ca2+, mean of two independent experiments) | MIC, Enterococcus faecium isolate 7 ([3]; clinical isolate 7, broth microdilution, MHB II, 37 °C, 24 h, daptomycin with 50 µg/mL Ca2+, mean of two independent experiments) | MIC, Enterococcus faecium isolate 11 ([3]; clinical isolate 11, broth microdilution, MHB II, 37 °C, 24 h, daptomycin with 50 µg/mL Ca2+, mean of two independent experiments) | MIC, Enterococcus faecium isolate 13 ([3]; clinical isolate 13, broth microdilution, MHB II, 37 °C, 24 h, daptomycin with 50 µg/mL Ca2+, mean of two independent experiments) | MIC, Enterococcus faecium isolate 14 ([3]; clinical isolate 14, broth microdilution, MHB II, 37 °C, 24 h, daptomycin with 50 µg/mL Ca2+, mean of two independent experiments) | MIC, Enterococcus faecium isolate 16 ([3]; clinical isolate 16, broth microdilution, MHB II, 37 °C, 24 h, daptomycin with 50 µg/mL Ca2+, mean of two independent experiments) | MIC, Enterococcus faecium isolate 18 ([3]; clinical isolate 18, broth microdilution, MHB II, 37 °C, 24 h, daptomycin with 50 µg/mL Ca2+, mean of two independent experiments)
2 µg/mL: MIC, Enterococcus faecium isolate 3 ([3]; clinical isolate 3, broth microdilution, MHB II, 37 °C, 24 h, daptomycin with 50 µg/mL Ca2+, mean of two independent experiments) | MIC, Enterococcus faecium isolate 4 ([3]; clinical isolate 4, broth microdilution, MHB II, 37 °C, 24 h, daptomycin with 50 µg/mL Ca2+, mean of two independent experiments)
